{"source": "patent US8883410B2", "about": "“Method for determining the stability of organic methyleneamines in the presence of semicarbazide-sensitive amine oxidase” (Sanofi, priority 2007, dated 2014)", "key": {"[1]": {"biological_target": "T1, human SSAO, full-length, C-terminal 6xHIS tag (Homo sapiens, UniProt Q16853)", "T1 construct": "expressed in transfected cells; cell lysate", "T1 sequence (Q16853 1-763)": "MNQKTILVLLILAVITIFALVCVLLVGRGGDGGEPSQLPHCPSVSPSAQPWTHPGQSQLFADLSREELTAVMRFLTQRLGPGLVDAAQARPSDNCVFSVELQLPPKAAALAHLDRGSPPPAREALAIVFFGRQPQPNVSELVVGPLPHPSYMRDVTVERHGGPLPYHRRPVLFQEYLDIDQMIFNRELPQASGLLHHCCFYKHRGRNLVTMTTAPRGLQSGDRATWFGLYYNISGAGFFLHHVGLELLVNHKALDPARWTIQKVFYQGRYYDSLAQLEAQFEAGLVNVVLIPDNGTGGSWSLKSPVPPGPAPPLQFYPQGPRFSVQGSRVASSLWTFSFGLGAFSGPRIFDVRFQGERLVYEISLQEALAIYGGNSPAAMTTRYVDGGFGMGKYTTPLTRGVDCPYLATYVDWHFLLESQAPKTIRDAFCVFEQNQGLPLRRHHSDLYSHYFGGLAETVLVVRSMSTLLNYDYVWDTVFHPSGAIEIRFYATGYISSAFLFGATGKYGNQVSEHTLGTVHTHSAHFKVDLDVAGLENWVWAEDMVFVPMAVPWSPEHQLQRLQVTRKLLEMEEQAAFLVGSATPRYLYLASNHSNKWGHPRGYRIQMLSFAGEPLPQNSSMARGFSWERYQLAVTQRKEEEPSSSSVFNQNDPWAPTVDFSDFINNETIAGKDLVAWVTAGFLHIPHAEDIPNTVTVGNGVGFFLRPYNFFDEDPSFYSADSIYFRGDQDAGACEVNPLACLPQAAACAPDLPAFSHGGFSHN", "assay": "Benzylamine stability in lysate of cells expressing full-length SSAO with C-terminal 6xHIS tag, LC/MS/MS", "type": "in vitro ADME", "experimental": "The expression constructs were prepared by cloning these PCR products into the pCDNA5-FRT-To-DEST vector (Invitrogen, Gateway System™). The forward and reverse DNA sequence of each construct was confirmed including expressed sequences and at least 100 base pairs either side of this. Stable cell lines for Flp-In CHO, Flp-In CHO T-Rex, and Flp-In HEK 293 (Invitrogen, Flp-In system™) were generated using these 6 constructs according to manufacturer's instructions. Cells were co-transfected with the regulatory vector, pOG44, and each of the pCDNA5-FRT-To-DEST constructs using Lipfectamine (Invitrogen) according to manufacturer's instructions. Thus, 18 cell lines were generated: CHO Flp-In full-length SSAO; CHO Flp-In full-length SSAO with C-terminal 6×HIS tag; CHO Flp-In T1 SSAO; CHO Flp-In T1 SSAO with C-terminal 6×HIS tag; CHO Flp-In T2 SSAO; CHO Flp-In T2 SSAO with C-terminal 6×HIS tag; CHO T-Rex Flp-In full-length SSAO; CHO T-Rex Flp-In full-length SSAO with C-terminal 6×HIS tag; CHO T-Rex Flp-In T1 SSAO; CHO T-Rex Flp-In T1 SSAO with C-terminal 6×HIS tag; CHO T-Rex Flp-In T2 SSAO; CHO Flp-In T2 SSAO with C-terminal 6×HIS tag; HEK 293 Flp-In full-length SSAO; HEK 293 Flp-In full-length SSAO with C-terminal 6×HIS tag; HEK 293 Flp-In T1 SSAO; HEK 293 Flp-In T1 SSAO with C-terminal 6×HIS tag; HEK 293 Flp-In T2 SSAO; HEK 293 Flp-In T2 SSAO with C-terminal 6×HIS tag.\n(§1) Adherent CHO cells were cultured at 37° C., 5% CO2 in media containing Ham's F12, 10% fetal bovine serum, 2 mM L-glutamine, 1% Penicillin/Streptomycin, 300 μM hygromycin B. Adherent HEK 293 cells were cultured at 37° C., 5% CO2 in D-MEM (high glucose), 10% fetal bovine serum, 2 mM L-glutamine, and 200 μM hygromycin B. Stable transformants were identified by loss of zeocin resistance. Once the cells were 80% confluent, SSAO expression was induced by the addition of Tetracycline to 1 μg/mL. Following 18 hours, the cells were harvested using a trypsin treatment of 3 minutes, at room temperature. Cells were washed 3 times in phosphate buffered saline before flash freezing in liquid nitrogen.\n(§2) For the preparation of cell lysate for activity testing, frozen cell pellets were resuspended in lysate buffer containing 10 mM Tris-HCl (pH 7.2), 150 mM NaCl, 1.5 mM MgCl2, 1% v/v NP-40 and incubated for 15 minutes on ice. Lysate was cleared by centrifugation 800×g for 10 minutes, 4° C. and stored in aliquots at −80° C. until use. Proteins were determined using Pierce Coomassie Protein Reagent, according to manufacturer's instructions.\n(§3) For each assay run, 1 mL of cell lysate (1.5 mg/mL protein) was mixed with benzylamine to 2000 ng/mL final concentration. At each corresponding time point, […] the incubation mixture was transferred to a microcentrifuge tube (1.7 mL) and mixed with 50 μL of acetonitrile. The tubes were vortex mixed briefly to ensure complete mixing and then centrifuged at 10,000×g for 5 minutes. The supernatant was removed and 50 μL was transferred to an autosampler vial and mixed with 50 μL of water before LC/MS/MS analysis. Benzylamine remaining in the lysate was analyzed with LC/MS/MS method.\n(§4) LC/MS/MS analysis was performed with a PE Sciex API 3000 mass spectrometer under the following conditions listed below and in Tables 1 and 2: […]"}, "[2]": {"assay": "Benzylamine stability in control cell lysate (no SSAO expressed), LC/MS/MS", "type": "in vitro ADME", "conditions": "tag None", "experimental": "as §1, §2, §3, §4"}}}
{"compound": "NCc1ccccc1", "note": "[Benzylamine]", "values": [{"measurement": "Benzylamine Remaining (%)", "setting": "[1]; CHO Flp-In T-Rex lysate, 0 min", "value": 100, "unit": "%"}, {"measurement": "Benzylamine Remaining (%)", "setting": "[1]; CHO Flp-In T-Rex lysate, 10 min", "value": 94, "unit": "%"}, {"measurement": "Benzylamine Remaining (%)", "setting": "[1]; CHO Flp-In T-Rex lysate, 2 h", "value": 59, "unit": "%"}, {"measurement": "Benzylamine Remaining (%)", "setting": "[1]; CHO Flp-In lysate, 0 min", "value": 100, "unit": "%"}, {"measurement": "Benzylamine Remaining (%)", "setting": "[1]; CHO Flp-In lysate, 10 min", "value": 101, "unit": "%"}, {"measurement": "Benzylamine Remaining (%)", "setting": "[1]; CHO Flp-In lysate, 2 h", "value": 73, "unit": "%"}, {"measurement": "Benzylamine Remaining (%)", "setting": "[1]; HEK293 lysate, 0 min", "value": 100, "unit": "%"}, {"measurement": "Benzylamine Remaining (%)", "setting": "[1]; HEK293 lysate, 10 min", "value": 105, "unit": "%"}, {"measurement": "Benzylamine Remaining (%)", "setting": "[1]; HEK293 lysate, 2 h", "value": 98, "unit": "%"}, {"measurement": "Benzylamine Remaining (%)", "setting": "[2]; CHO Flp-In T-Rex lysate, SSAO None, 0 min", "value": 100, "unit": "%"}, {"measurement": "Benzylamine Remaining (%)", "setting": "[2]; CHO Flp-In T-Rex lysate, SSAO None, 10 min", "value": 104, "unit": "%"}, {"measurement": "Benzylamine Remaining (%)", "setting": "[2]; CHO Flp-In T-Rex lysate, SSAO None, 2 h", "value": 99, "unit": "%"}, {"measurement": "Benzylamine Remaining (%)", "setting": "[2]; Control CHO Flp-In lysate, SSAO none, 0 min", "value": 100, "unit": "%"}, {"measurement": "Benzylamine Remaining (%)", "setting": "[2]; Control CHO Flp-In lysate, SSAO none, 10 min", "value": 104, "unit": "%"}, {"measurement": "Benzylamine Remaining (%)", "setting": "[2]; Control CHO Flp-In lysate, SSAO none, 2 h", "value": 99, "unit": "%"}, {"measurement": "Benzylamine Remaining (%)", "setting": "[2]; Control CHO lysate, SSAO none, 0 min", "value": 100, "unit": "%"}, {"measurement": "Benzylamine Remaining (%)", "setting": "[2]; Control CHO lysate, SSAO none, 10 min", "value": 111, "unit": "%"}, {"measurement": "Benzylamine Remaining (%)", "setting": "[2]; Control CHO lysate, SSAO none, 2 h", "value": 110, "unit": "%"}, {"measurement": "Benzylamine Remaining (%)", "setting": "[2]; HEK293 control lysate, SSAO none, 0 min", "value": 100, "unit": "%"}, {"measurement": "Benzylamine Remaining (%)", "setting": "[2]; HEK293 control lysate, SSAO none, 10 min", "value": 106, "unit": "%"}, {"measurement": "Benzylamine Remaining (%)", "setting": "[2]; HEK293 control lysate, SSAO none, 2 h", "value": 123, "unit": "%"}]}
